By EC50 is commonly meant the midpoint of the concentration-response curve. High values mean a less potent agent, low ones a more potent agent.

This is an account of results in publication PMC11259170, “Small-molecule probe for IBD risk variant GPR65 I231L alters cytokine signaling networks through positive allosteric modulation” (Science Advances, 2024).

For test [1], the target named is T1, hGPR4-SmBiT (Homo sapiens, UniProt P46093).
T1 construct: expressed in transfected cells; host or cells: Expi293F (Gibco), transient transfection
T1 sequence (P46093 whole entry): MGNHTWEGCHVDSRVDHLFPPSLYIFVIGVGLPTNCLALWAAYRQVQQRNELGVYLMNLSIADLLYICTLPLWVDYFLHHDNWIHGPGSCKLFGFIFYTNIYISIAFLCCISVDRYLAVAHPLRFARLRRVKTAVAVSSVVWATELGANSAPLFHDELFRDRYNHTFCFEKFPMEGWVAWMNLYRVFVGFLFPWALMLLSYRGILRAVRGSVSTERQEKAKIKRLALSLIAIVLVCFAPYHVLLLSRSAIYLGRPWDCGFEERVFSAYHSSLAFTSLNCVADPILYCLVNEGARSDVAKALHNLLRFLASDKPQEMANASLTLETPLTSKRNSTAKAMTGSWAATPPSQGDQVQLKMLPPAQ
Nature of the test: Nano-BiT target engagement, LgBiT-mGs recruitment to hGPR4-SmBiT. The test is classed as cell-based. The following applies: 10 μM. As to the method: (§1) Target engagement was measured in Expi293F (Gibco, 100044202) cells using the Nano-Glo Live Cell Assay System (Promega, N2011). Nano-BiT plasmids were cloned from GPR65-, GPR4-, and GPR68-Tango plasmids. GPR65-Tango (Addgene plasmid # 66370; http://n2t.net/addgene:66370; RRID:Addgene_66370), GPR4-Tango (Addgene plasmid # 66358; http://n2t.net/addgene:66358; RRID:Addgene_66358), and GPR68-Tango (Addgene plasmid # 66371; http://n2t.net/addgene:66371; RRID:Addgene_66371) were gifts from Bryan Roth. Expi293F cells were transfected 1 day before kinetics with 500 ng of each plasmid using ExpiFectamine 293 Transfection Kit (Gibco, A14525). After 24 hours, cells were collected, washed, and resuspended in room temperature 0.1% PBS-BSA, adjusted to pH 7.4 using 1 M NaOH. Cells were transferred to white opaque 96-well microplates (100 μl per well, PerkinElmer, 6005290), followed by addition of the Nano-Glo Live Cell Reagent (25 μl per well). Baseline luminescence was measured for 10 cycles (1 cycle = 90 s) before adding compounds. All luminescence measurements were made on BMG Labtech PHERAstar FSX. Data analysis was performed using GraphPad Prism.

Test [2] has as its target T2, hGPR65 I231L-SmBiT (Homo sapiens, UniProt Q8IYL9, I231L).
T2 construct: expressed in transfected cells; host or cells: Expi293F (Gibco), transient transfection
Nature of the test: Nano-BiT target engagement, LgBiT-mGs recruitment to hGPR65 I231L-SmBiT. Format: cell-based. The following applies: 10 μM. The procedure:
as §1

Test [3] has as its system GFP-expressing HeLa cells. Put plainly: cAMP detection in HeLa expression cell line, GFP control. The following applies: Homo sapiens, HeLa, 1st GFP column pair, NA = no activity. Format: cell-based, human. Put shortly:
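HeLa cells stably expressing C-terminally V5-tagged receptor or GFP (lentiviral, puromycin 3 μg/ml) stimulated at 1500 cells per well for 30 min at RT with compound (10 mM DMSO stock) in stimulation buffer at pH 7.2. cAMP detected by Lance Ultra TR-FRET after lysis and 1 h detection, excitation 337 nm, emission 620/665 nm.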

Structures are written as SMILES.

T2 sequence (Q8IYL9 whole entry I231L): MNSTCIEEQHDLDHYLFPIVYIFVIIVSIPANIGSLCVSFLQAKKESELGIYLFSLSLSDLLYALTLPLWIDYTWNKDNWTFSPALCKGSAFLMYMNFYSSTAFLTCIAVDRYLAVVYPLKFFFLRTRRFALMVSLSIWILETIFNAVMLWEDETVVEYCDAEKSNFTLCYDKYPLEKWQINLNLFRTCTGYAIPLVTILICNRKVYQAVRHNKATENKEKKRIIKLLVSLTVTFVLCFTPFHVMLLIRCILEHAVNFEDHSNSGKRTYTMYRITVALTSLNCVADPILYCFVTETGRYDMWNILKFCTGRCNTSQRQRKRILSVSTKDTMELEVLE

With `Cc1ccc(NC(=O)c2cnn3c(O)cc(-c4ccc(COC(C)C)cc4)nc23)nc1` [BRD5075, O=C(NC1=NC=C(C)C=C1)C2=C3N(N=C2)C(O)=CC(C4=CC=C(COC(C)C)C=C4)=N3], the “response in cells expressing hGPR4-SmBiT” value in test [1] is listed as “failing to elicit responses”. For the same compound, the “G protein recruitment in cells expressing hGPR65 I231L” value in test [2] is reported as “able to recruit G protein”.
In test [3], `CN1N=C(SCc2ccc(Cl)cc2Cl)Sc2c1cnn(C)c2=O` [BTB09089, reference compound] came in with an EC50 of 0.194 µM. Besides, in test [3] (relative to 100uM forskolin (100%) and DMSO (0%), read-out: GFP Max Activity %), the Emax amounted to 1.95%.
